The target of experiment [1] is T1, Adenosine A2A receptor (Homo sapiens, UniProt P29274). The experiment can be described thus: cAMP assay in 293A cells stably expressing the adenosine A2A receptor (CGS21680 stimulation, HTRF). Also on record: expressed in transfected cells; host or cells: 293A cells (Invitrogen, Cat# R705-07) infected with A2A-expressing lentivirus (custom packaged by Biosettia), puromycin selected. The settings on record: 293A-A2AR cells, 0.1% BSA, values separated by / are repeat determinations. In kind it is cell-based. (In general: Changes in cAMP serve as a functional read-out for many G protein-coupled receptors.)
T1 sequence (P29274 whole entry): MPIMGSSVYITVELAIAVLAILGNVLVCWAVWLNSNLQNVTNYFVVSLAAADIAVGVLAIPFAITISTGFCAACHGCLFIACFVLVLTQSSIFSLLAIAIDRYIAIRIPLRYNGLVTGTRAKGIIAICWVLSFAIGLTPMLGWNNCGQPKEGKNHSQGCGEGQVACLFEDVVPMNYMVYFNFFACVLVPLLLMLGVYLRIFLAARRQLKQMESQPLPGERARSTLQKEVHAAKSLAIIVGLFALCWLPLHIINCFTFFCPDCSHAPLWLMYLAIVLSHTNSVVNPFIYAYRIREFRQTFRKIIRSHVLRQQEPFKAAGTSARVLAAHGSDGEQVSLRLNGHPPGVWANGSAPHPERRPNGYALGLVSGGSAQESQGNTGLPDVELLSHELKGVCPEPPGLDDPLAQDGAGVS

The target of experiment [2] is T1, Adenosine A2A receptor. The experiment can be described thus: Adenosine A2A receptor competitive binding assay (Tag-lite HTRF). The settings on record: Tag-lite adenosine A2A receptor ligand binding, 2 h room temperature; values separated by / are repeat determinations. Put shortly: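 Compound displacement of a red fluorescent antagonist tracer (added at 60 nM stock) from donor-labelled, pre-transfected human A2A cells was read by HTRF after 2 h at room temperature; compound dilutions contained 0.6% DMSO.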
In general terms: TR-FRET usually uses a lanthanide donor and a delayed reading to cut background.

The mark [3] stands for this setting: 8 nM CGS, read-out: cAMP (nM) 0.1% BSA, 8 nM CGS.
Setting [4] is: 1 uM CGS, read-out: cAMP (nM) 0.1% BSA, 1 uM CGS.

Several values for one entry are separate records, joined by “and”; a condition that tells them apart may be missing. Equal entries are not always repeated.

`CCOC(=O)NCCOc1nc(N)nc(-c2ccc(F)cc2)c1-c1cc(C)nc(C(F)F)c1` [Example 54, ethyl(2-((2-amino-5-(2-(difluoromethyl)-6-methylpyridin-4-yl)-6-(4-fluorophenyl)pyrimidin-4-yl)oxy)ethyl)carbamate]: the IC50 was 0.22 nM and 1.45 nM in experiment [1] (setting [3]); 2.1 nM and 10 nM in experiment [2].

As for `Cc1cc(-c2c(OCCN3CCN(c4ccc(S(C)(=O)=O)cc4)CC3)nc(N)nc2-c2ccc(F)cc2)cc(C(F)F)n1` [Example 56, 5-(2-(difluoromethyl)-6-methylpyridin-4-yl)-4-(4-fluorophenyl)-6-(2-(4-(4-(methylsulfonyl)phenyl)piperazin-1-yl)ethoxy)pyrimidin-2-amine], the results for the IC50 in experiment [1] (setting [3]) and in experiment [2] were 3.6 nM and 8.9 nM, respectively.

As for `Cc1cc(-c2c(OCCc3ccc(N4CCN(C)CC4)cc3)nc(N)nc2-c2ccc(F)cc2)cc(C(F)F)n1` [Example 57, 5-(2-(difluoromethyl)-6-methylpyridin-4-yl)-4-(4-fluorophenyl)-6-(4-(4-methylpiperazin-1-yl)phenethoxy)pyrimidin-2-amine], the IC50 was 1.7 nM in experiment [1] (setting [3]); 2 nM and 14 nM in experiment [2].

In the case of `Cc1cc(-c2c(OCCNS(N)(=O)=O)nc(N)nc2-c2ccc(F)cc2)cc(C(F)F)n1` [Example 59], the IC50 in experiment [1] (setting [3]) was 2.2 nM and 1.3 nM; in experiment [1] (setting [4]), 663 nM and 394 nM; in experiment [2] it was 1.8 nM and 7.8 nM.

In the case of `CCNC(=O)NCCOc1nc(N)nc(-c2ccc(F)cc2)c1-c1cc(C)nc(C(F)F)c1` [Example 60, 1-(2-((2-amino-5-(2-(difluoromethyl)-6-methylpyridin-4-yl)-6-(4-fluorophenyl)pyrimidin-4-yl)oxy)ethyl)-3-ethylurea], the IC50 is 1.7 nM and 2.2 nM in experiment [1] (setting [3]); 3.6 nM and 8.8 nM in experiment [2].

On to `Cc1cc(-c2c(OCC(C)(C)C(=O)O)nc(N)nc2-c2ccc(F)cc2)cc(C(F)F)n1` [Example 61, 3-((2-amino-5-(2-(difluoromethyl)-6-methylpyridin-4-yl)-6-(4-fluorophenyl)pyrimidin-4-yl)oxy)-2,2-dimethylpropanoic acid], for which the figures for the IC50 in experiment [1] (setting [3]) and in experiment [2] were 233 nM and 280 nM, respectively.

On to `Cc1cc(-c2c(OCC(C)(C)O)nc(N)nc2-c2ccc(F)cc2)cc(C(F)F)n1` [Example 62, 1-((2-amino-5-(2-(difluoromethyl)-6-methylpyridin-4-yl)-6-(4-fluorophenyl)pyrimidin-4-yl)oxy)-2-methylpropan-2-ol], for which the IC50 in experiment [1] (setting [3]) and in experiment [2] was 15 nM in each case.

For `CCOC(=O)NCc1nc(N)nc(-c2ccccc2)c1-c1cc(C)nc(C(F)(F)F)c1` [Example 63, Ethyl((2-amino-5-(2-methyl-6-(trifluoromethyl)pyridin-4-yl)-6-phenylpyrimidin-4-yl)methyl)carbamate], the IC50 turned out to be 8.3 nM in experiment [1] (setting [3]) and 37 nM in experiment [2].

In the case of `CCNCCOc1nc(N)nc(-c2ccc(F)cc2)c1-c1cc(C)nc(C(F)F)c1` [Example 65, 5-(2-(difluoromethyl)-6-methylpyridin-4-yl)-4-(2-(ethylamino)ethoxy)-6-(4-fluorophenyl)pyrimidin-2-amine], the results for the IC50 in experiment [1] (setting [3]), in experiment [1] (setting [4]) and in experiment [2] were 1.6 nM, 1010 nM and 42 nM, respectively.

In the case of `Cc1cc(-c2c(OCCc3ccc(OC4CCN(S(C)(=O)=O)C4)cc3)nc(N)nc2-c2ccc(F)cc2)cc(C(F)F)n1` (centres unmarked) [Example 66, 5-(2-(difluoromethyl)-6-methylpyridin-4-yl)-4-(4-fluorophenyl)-6-(4-((1-(methylsulfonyl)pyrrolidin-3-yl)oxy)phenethoxy)pyrimidin-2-amine], the IC50 in experiment [1] (setting [3]) turned out to be 337 nM; in experiment [2] it was 95 nM.

For `CCNC(=O)Nc1ccc(CCOc2nc(N)nc(-c3ccc(F)cc3)c2-c2cc(C)nc(C(F)F)c2)cc1` [Example 67, 1-(4-(2-((2-amino-5-(2-(difluoromethyl)-6-methylpyridin-4-yl)-6-(4-fluorophenyl)pyrimidin-4-yl)oxy)ethyl)phenyl)-3-ethylurea], the IC50 in experiment [1] (setting [3]) stood at 4.7 nM; in experiment [2], 27 nM.

Regarding `Cc1cc(-c2c(OCCc3ccc(C(C)(C)O)cc3)nc(N)nc2-c2ccc(F)cc2)cc(C(F)F)n1` [Example 68, 2-(4-(2-((2-amino-5-(2-(difluoromethyl)-6-methylpyridin-4-yl)-6-(4-fluorophenyl)pyrimidin-4-yl)oxy)ethyl)phenyl)propan-2-ol], the IC50 in experiment [1] (setting [3]) is 2.7 nM; in experiment [2], 22 nM.

As for `Cc1cc(-c2c(OCCc3ccc(NS(C)(=O)=O)cc3)nc(N)nc2-c2ccc(F)cc2)cc(C(F)F)n1` [Example 69, N-(4-(2-((2-amino-5-(2-(difluoromethyl)-6-methylpyridin-4-yl)-6-(4-fluorophenyl)pyrimidin-4-yl)oxy)ethyl)phenyl)methanesulfonamide], the results for the IC50 in experiment [1] (setting [3]) and in experiment [2] were 5.8 nM and 38 nM, respectively.

Regarding `Cc1cc(-c2c(OCCC(C)(C)C(=O)O)nc(N)nc2-c2ccc(F)cc2)cc(C(F)F)n1` [Example 70, 4-((2-amino-5-(2-(difluoromethyl)-6-methylpyridin-4-yl)-6-(4-fluorophenyl)pyrimidin-4-yl)oxy)-2,2-dimethylbutanoic acid], the IC50 was 513 nM and 315 nM and 231 nM and 229 nM and 143 nM in experiment [1] (setting [4]); 3.6 nM and 1 nM and 4 nM in experiment [2].

Take `Cc1cc(-c2c(OCC(=O)O)nc(N)nc2-c2ccc(F)cc2)cc(C(F)F)n1` [Example 71, 2-((2-amino-5-(2-(difluoromethyl)-6-methylpyridin-4-yl)-6-(4-fluorophenyl)pyrimidin-4-yl)oxy)acetic acid]: the IC50 in experiment [1] (setting [3]) and in experiment [2] was > 1000 nM in each case.

`Cc1cc(-c2c(O[C@H](C)CO)nc(N)nc2-c2ccc(F)cc2)cc(C(F)F)n1` [Example 73, (R)-2-((2-amino-5-(2-(difluoromethyl)-6-methylpyridin-4-yl)-6-(4-fluorophenyl)pyrimidin-4-yl)oxy)propan-1-ol]: the IC50 in experiment [1] (setting [3]) was found to be 3.6 nM; in experiment [2], 25 nM.

`Cc1cc(-c2c(OC[C@@H](C)O)nc(N)nc2-c2ccc(F)cc2)cc(C(F)F)n1` [Example 74, (R)-1-((2-amino-5-(2-(difluoromethyl)-6-methylpyridin-4-yl)-6-(4-fluorophenyl)pyrimidin-4-yl)oxy)propan-2-ol]: the IC50 is 693 nM in experiment [1] (setting [4]); 8.4 nM and 15.7 nM in experiment [2].

Turning to `Cc1cc(-c2c(OCC3CNC3)nc(N)nc2-c2ccc(F)cc2)cc(C(F)F)n1` [Example 75, 4-(azetidin-3-ylmethoxy)-5-(2-(difluoromethyl)-6-methylpyridin-4-yl)-6-(4-fluorophenyl)pyrimidin-2-amine], the figures for the IC50 in experiment [1] (setting [3]) and in experiment [2] were 89 nM and 201 nM, respectively.

`Cc1cc(-c2c(O[C@@H](C)CO)nc(N)nc2-c2ccc(F)cc2)cc(C(F)F)n1` [Example 76, (S)-2-((2-amino-5-(2-(difluoromethyl)-6-methylpyridin-4-yl)-6-(4-fluorophenyl)pyrimidin-4-yl)oxy)propan-1-ol]: the IC50 in experiment [1] (setting [3]) stood at 3.2 nM; in experiment [2] it was 19 nM.

Consider `Cc1cc(-c2c(OC[C@H](C)O)nc(N)nc2-c2ccc(F)cc2)cc(C(F)F)n1` [Example 77, (S)-1-((2-amino-5-(2-(difluoromethyl)-6-methylpyridin-4-yl)-6-(4-fluorophenyl)pyrimidin-4-yl)oxy)propan-2-ol], for which the IC50 was 547 nM in experiment [1] (setting [4]); 3.9 nM and 4.2 nM in experiment [2].

Consider `Cc1cc(-c2c(CNC(=O)N(C)C)nc(N)nc2-c2ccc(F)cc2)cc(C(F)F)n1` [Example 78, 3-((2-amino-5-(2-(difluoromethyl)-6-methylpyridin-4-yl)-6-(4-fluorophenyl)pyrimidin-4-yl)methyl)-1,1-dimethylurea], for which the figures for the IC50 in experiment [1] (setting [3]) and in experiment [2] were 51 nM and 11 nM, respectively.

On to `Cc1cc(-c2c(OCCCN3CCOCC3)nc(N)nc2-c2ccc(F)cc2)cc(C(F)F)n1` [Example 80, 5-(2-(difluoromethyl)-6-methylpyridin-4-yl)-4-(4-fluorophenyl)-6-(3-morpholinopropoxy)pyrimidin-2-amine], for which the IC50 in experiment [1] (setting [3]) came to 6.4 nM; in experiment [2] it was 42 nM.

On to `Cc1cc(-c2c(OCC(O)CCO)nc(N)nc2-c2ccc(F)cc2)cc(C(F)F)n1` (centres unmarked) [Example 81, 4-((2-amino-5-(2-(difluoromethyl)-6-methylpyridin-4-yl)-6-(4-fluorophenyl)pyrimidin-4-yl)oxy)butane-1,3-diol], for which the IC50 is 21 nM and 5.9 nM and 8.4 nM in experiment [1] (setting [3]); 5.6 nM in experiment [2].

Consider `Cc1cc(-c2c(OCCNc3ccccc3)nc(N)nc2-c2ccc(F)cc2)cc(C(F)F)n1` [Example 82, 5-(2-(difluoromethyl)-6-methylpyridin-4-yl)-4-(4-fluorophenyl)-6-(2-(phenylamino)ethoxy)pyrimidin-2-amine], for which the IC50 in experiment [1] (setting [3]) worked out at 1.6 nM; in experiment [1] (setting [4]), 936 nM; in experiment [2], 16 nM.

As to `Cc1cc(-c2c(OC[C@@H](O)CO)nc(N)nc2-c2ccc(F)cc2)cc(C(F)F)n1` [Example 83, (S)-3-((2-amino-5-(2-(difluoromethyl)-6-methylpyridin-4-yl)-6-(4-fluorophenyl)pyrimidin-4-yl)oxy)propane-1,2-diol], the IC50 is 2.9 nM and 7.3 nM and 22 nM in experiment [1] (setting [3]); 1610 nM in experiment [1] (setting [4]); 13 nM in experiment [2].

With `Cc1cc(-c2c(OCC(=O)NCc3ccccc3)nc(N)nc2-c2ccc(F)cc2)cc(C(F)F)n1` [Example 84], the IC50 in experiment [1] (setting [3]) worked out at 8.7 nM; in experiment [2], 17 nM.

For `Cc1cc(-c2c(OC[C@H](O)CO)nc(N)nc2-c2ccc(F)cc2)cc(C(F)F)n1` [Example 86, (R)-3-((2-amino-5-(2-(difluoromethyl)-6-methylpyridin-4-yl)-6-(4-fluorophenyl)pyrimidin-4-yl)oxy)propane-1,2-diol], the IC50 in experiment [1] (setting [3]) was 2 nM and 9.1 nM and 10.5 nM; in experiment [1] (setting [4]) it was 1070 nM; in experiment [2] it was 13 nM.

The values are drawn from US20210355104A1, “ADENOSINE RECEPTOR BINDING COMPOUNDS” (Nikang Therapeuticsm Inc., priority 2018, published 2021).
